In US20260224588A1, “BENZODIAZEPINONE-DERIVED INHIBITORS OF EGFR AND HER2” (The Research Foundation for the State University of New York, priority 2023, published 2026):

How the values were obtained:
Assay in all cases: KINOMEscan
Format in all cases: binding
Conditions in all cases: 1 μM of compound 4; read-out: POC
ADCK3 = ADCK3 (Homo sapiens, UniProt Q8NI60)
CAMK4 = CAMK4 (Homo sapiens, UniProt Q16566)
CDK8 = CDK8 (Homo sapiens, UniProt P49336)
CLK4 = CLK4 (Homo sapiens, UniProt Q9HAZ1)
DRAK2 = DRAK2 (Homo sapiens, UniProt O94768)
EPHA2 = target: T1, EPHA2 (Homo sapiens, UniProt P29317)
T1 construct: purchased Eurofins DiscoverX (KINOMEscan service)

ERN1 = target: T2, ERN1 (Homo sapiens, UniProt O75460)
T2 construct: purchased Eurofins DiscoverX Corporation

FER = target: T3, FER (Homo sapiens, UniProt P16591)
T3 construct: purchased Eurofins DiscoverX Corporation
T3 sequence (P16591 whole entry): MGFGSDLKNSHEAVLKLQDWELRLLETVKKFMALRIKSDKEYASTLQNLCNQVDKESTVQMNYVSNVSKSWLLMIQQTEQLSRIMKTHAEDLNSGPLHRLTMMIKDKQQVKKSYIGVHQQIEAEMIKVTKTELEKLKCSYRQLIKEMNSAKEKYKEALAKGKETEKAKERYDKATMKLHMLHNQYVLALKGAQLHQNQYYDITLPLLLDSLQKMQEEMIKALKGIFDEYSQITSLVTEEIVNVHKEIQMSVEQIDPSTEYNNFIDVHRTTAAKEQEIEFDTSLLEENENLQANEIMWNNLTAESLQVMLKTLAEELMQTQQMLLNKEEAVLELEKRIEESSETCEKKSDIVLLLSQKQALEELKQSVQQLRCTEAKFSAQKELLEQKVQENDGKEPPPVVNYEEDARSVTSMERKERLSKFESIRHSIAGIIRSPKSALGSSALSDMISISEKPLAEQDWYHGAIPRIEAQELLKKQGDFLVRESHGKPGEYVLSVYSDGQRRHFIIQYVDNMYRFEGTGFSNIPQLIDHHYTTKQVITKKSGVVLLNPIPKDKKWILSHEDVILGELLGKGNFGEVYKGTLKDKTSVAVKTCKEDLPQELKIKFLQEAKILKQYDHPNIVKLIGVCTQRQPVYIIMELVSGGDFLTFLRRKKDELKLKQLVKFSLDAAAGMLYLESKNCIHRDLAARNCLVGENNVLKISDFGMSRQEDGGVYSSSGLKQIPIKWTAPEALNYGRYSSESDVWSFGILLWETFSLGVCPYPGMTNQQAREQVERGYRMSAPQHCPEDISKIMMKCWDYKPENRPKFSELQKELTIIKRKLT

FLT1 = target: T4, FLT1 (Homo sapiens, UniProt P17948)
T4 construct: purchased Eurofins DiscoverX Corporation

GRK3 = target: T5, GRK3 (Homo sapiens, UniProt P35626)
T5 construct: purchased Eurofins DiscoverX Corporation
T5 sequence (P35626 whole entry): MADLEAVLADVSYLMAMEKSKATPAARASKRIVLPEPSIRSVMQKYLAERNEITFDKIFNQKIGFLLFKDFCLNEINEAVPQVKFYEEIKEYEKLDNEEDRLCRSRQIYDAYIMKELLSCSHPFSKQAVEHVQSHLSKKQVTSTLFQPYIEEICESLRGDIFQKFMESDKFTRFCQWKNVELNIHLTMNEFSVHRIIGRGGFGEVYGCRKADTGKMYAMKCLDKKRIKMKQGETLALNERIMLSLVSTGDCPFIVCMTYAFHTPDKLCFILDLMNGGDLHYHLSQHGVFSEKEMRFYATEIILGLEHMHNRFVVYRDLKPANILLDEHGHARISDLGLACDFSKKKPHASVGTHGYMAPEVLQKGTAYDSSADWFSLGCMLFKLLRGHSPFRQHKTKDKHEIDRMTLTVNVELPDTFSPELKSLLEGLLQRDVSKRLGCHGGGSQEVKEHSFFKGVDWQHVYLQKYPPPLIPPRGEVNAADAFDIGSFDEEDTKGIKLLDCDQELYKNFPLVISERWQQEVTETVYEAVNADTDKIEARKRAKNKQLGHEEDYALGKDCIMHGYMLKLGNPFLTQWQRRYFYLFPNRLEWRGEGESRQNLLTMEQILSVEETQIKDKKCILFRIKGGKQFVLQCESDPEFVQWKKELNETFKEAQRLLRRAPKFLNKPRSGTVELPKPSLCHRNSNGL

GRK7 = target: T6, GRK7 (Homo sapiens, UniProt Q8WTQ7)
T6 construct: purchased Eurofins DiscoverX Corporation

GSK3A = target: T7, GSK3A (Homo sapiens, UniProt P49840)
T7 construct: purchased Eurofins DiscoverX Corporation

HUNK = HUNK (Homo sapiens, UniProt P57058)
[1] = target: JAK1(JH2domain-pseudokinase) (Homo sapiens, UniProt P23458)
Chain of JAK1(JH2domain-pseudokinase) (P23458 583-855 limits assumed): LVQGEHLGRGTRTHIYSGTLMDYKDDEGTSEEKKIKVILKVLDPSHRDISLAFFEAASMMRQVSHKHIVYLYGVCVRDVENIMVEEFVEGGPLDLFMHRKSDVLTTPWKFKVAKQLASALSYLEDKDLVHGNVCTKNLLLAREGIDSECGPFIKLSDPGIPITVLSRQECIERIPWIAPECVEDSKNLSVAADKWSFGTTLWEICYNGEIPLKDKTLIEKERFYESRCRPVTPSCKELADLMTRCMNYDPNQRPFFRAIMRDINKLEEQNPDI

LOK = LOK (Homo sapiens, UniProt O94804)
LRRK2(G2019S) = LRRK2(G2019S) (Homo sapiens, UniProt Q5S007, G2019S)
MAP3K2 = MAP3K2 (Homo sapiens, UniProt Q9Y2U5)
MLK2 = MLK2 (Homo sapiens, UniProt Q02779)
MST2 = MST2 (Homo sapiens, UniProt Q13188)
NEK1 = NEK1 (Homo sapiens, UniProt Q96PY6)
Chain of NEK1 (Q96PY6 whole entry): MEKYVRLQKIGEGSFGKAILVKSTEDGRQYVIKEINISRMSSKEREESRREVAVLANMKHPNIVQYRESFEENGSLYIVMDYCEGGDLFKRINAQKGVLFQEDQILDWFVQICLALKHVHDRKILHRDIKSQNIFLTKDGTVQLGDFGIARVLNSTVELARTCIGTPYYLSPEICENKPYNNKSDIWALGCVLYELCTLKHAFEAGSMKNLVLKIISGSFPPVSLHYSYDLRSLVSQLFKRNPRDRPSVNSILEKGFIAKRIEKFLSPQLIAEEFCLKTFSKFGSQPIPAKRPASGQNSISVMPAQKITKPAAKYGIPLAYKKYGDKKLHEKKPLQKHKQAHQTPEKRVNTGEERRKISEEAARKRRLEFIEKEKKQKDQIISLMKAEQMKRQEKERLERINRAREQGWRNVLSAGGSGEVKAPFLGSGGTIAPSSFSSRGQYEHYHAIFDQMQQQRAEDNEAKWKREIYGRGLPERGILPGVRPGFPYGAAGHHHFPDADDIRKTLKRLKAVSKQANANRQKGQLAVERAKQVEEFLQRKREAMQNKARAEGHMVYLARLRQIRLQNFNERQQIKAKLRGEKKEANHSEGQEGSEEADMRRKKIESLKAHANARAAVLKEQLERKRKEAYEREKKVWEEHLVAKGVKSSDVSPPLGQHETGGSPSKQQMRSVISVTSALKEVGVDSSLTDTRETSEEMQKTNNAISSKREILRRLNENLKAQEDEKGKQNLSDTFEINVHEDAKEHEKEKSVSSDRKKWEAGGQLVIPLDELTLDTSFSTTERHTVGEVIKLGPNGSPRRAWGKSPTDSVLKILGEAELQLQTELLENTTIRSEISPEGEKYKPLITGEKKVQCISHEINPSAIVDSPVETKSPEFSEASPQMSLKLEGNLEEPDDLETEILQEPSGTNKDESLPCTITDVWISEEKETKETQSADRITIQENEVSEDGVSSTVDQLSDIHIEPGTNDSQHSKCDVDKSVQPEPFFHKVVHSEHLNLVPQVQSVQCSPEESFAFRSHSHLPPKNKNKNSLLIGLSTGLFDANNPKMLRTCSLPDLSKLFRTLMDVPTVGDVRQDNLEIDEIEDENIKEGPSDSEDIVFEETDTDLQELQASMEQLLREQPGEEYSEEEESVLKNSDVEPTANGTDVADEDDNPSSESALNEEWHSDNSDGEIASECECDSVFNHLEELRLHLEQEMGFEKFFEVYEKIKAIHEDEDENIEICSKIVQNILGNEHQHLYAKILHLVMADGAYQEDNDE

NEK11 = NEK11 (Homo sapiens, UniProt Q8NG66)
OSR1 = target: T8, OSR1 (Homo sapiens, UniProt O95747)
T8 construct: purchased Eurofins DiscoverX Corporation (KINOMEscan)

PAK2 = target: T9, PAK2 (Homo sapiens, UniProt Q13177)
T9 construct: purchased Eurofins DiscoverX Corporation (KINOMEscan)

PFTK1 = PFTK1 (Homo sapiens, UniProt O94921)
Chain of PFTK1 (O94921 whole entry): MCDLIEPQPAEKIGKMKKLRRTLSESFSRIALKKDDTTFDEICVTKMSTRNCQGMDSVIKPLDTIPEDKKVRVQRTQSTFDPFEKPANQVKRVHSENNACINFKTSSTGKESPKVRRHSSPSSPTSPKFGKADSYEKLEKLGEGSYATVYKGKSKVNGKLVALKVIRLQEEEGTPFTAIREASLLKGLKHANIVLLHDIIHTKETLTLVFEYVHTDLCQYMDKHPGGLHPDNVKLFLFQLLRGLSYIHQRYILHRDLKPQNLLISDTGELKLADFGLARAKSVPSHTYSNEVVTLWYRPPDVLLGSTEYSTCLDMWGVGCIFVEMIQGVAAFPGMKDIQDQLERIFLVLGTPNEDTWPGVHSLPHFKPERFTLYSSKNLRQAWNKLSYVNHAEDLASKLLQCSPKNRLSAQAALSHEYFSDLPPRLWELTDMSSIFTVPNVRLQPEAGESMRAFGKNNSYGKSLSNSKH

PIM2 = PIM2 (Homo sapiens, UniProt Q9P1W9)
PKN1 = PKN1 (Homo sapiens, UniProt Q16512)
RET(V804M) = target: T10, RET(V804M) (Homo sapiens, UniProt P07949, V804M)
T10 construct: purchased Eurofins DiscoverX Corporation (KINOMEscan screening service)

RIOK3 = target: T11, RIOK3 (Homo sapiens, UniProt O14730)
T11 construct: purchased Eurofins DiscoverX Corporation (KINOMEscan screening service)
T11 sequence (O14730 whole entry): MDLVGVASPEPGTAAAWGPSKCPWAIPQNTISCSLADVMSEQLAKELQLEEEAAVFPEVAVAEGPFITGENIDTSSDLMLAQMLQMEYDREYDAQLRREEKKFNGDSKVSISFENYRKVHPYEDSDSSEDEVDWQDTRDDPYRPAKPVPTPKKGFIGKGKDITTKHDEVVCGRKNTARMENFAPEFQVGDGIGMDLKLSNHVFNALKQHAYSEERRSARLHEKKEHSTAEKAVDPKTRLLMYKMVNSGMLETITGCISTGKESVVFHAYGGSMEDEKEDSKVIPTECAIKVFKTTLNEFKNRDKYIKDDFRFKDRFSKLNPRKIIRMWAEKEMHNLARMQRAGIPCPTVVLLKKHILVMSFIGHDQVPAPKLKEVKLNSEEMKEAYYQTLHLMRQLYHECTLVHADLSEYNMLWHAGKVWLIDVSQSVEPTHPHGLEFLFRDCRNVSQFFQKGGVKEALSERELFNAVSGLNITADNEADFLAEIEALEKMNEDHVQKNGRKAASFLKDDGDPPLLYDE

SRPK2 = target: T12, SRPK2 (Homo sapiens, UniProt P78362)
T12 construct: purchased Eurofins DiscoverX (KINOMEscan service)

TAOK1 = target: T13, TAOK1 (Homo sapiens, UniProt Q7L7X3)
T13 construct: purchased Eurofins DiscoverX Corporation

TAOK3 = target: T14, TAOK3 (Homo sapiens, UniProt Q9H2K8)
T14 construct: purchased Eurofins DiscoverX Corporation

TLK2 = target: T15, TLK2 (Homo sapiens, UniProt Q86UE8)
T15 construct: purchased Eurofins DiscoverX Corporation

TNNI3K = target: T16, TNNI3K (Homo sapiens, UniProt Q59H18)
T16 construct: purchased Eurofins DiscoverX Corporation

TRKC = target: T17, TRKC (Homo sapiens, UniProt Q16288)
T17 construct: purchased Eurofins DiscoverX Corporation

TTK = target: T18, TTK (Homo sapiens, UniProt P33981)
T18 construct: purchased Eurofins DiscoverX Corporation

VPS34 = target: T19, VPS34 (Homo sapiens, UniProt Q8NEB9)
T19 construct: purchased Eurofins DiscoverX

YES = target: T20, YES (Homo sapiens, UniProt P07947)
T20 construct: purchased Eurofins DiscoverX
T20 sequence (P07947 whole entry): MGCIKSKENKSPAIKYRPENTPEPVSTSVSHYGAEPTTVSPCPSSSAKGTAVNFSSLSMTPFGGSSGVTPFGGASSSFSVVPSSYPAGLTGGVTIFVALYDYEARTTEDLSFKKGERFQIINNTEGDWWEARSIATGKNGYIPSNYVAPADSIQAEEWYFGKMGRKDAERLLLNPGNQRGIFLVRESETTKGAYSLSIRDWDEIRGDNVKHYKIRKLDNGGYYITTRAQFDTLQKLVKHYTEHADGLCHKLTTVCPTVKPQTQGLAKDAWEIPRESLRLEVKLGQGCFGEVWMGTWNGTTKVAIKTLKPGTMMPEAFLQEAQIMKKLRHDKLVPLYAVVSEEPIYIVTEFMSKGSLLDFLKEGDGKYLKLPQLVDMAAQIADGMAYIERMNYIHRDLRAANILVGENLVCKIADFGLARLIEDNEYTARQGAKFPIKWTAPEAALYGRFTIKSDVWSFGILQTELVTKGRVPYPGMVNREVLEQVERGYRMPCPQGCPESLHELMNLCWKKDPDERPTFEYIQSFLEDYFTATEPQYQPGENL

Chain of CDK8 (P49336 whole entry): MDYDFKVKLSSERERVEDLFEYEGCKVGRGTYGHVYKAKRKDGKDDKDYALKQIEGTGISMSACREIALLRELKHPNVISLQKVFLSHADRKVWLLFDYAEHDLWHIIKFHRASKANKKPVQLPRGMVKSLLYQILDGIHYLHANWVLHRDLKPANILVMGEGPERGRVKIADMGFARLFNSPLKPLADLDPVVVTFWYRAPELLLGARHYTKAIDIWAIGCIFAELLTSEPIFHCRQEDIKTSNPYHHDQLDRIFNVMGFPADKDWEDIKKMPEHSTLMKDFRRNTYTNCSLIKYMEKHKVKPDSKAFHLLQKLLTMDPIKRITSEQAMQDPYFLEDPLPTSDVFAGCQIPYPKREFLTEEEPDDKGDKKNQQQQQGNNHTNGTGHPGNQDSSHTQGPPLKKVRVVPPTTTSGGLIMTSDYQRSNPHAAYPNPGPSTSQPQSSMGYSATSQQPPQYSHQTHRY

C=CC(=O)Nc1ccc(OC)c(Nc2cc(-c3[nH]c(CC)nc3-c3cccc(NC(=O)c4cccc5c4NC(=O)c4ccccc4N5)c3)ccn2)c1 [Compound 4, N-(3-(5-(2-((5-Acrylamido-2-methoxyphenyl)amino)pyridin-4-yl)-2-ethyl-1H-imidazol-4-yl)phenyl)-11-oxo-10,11-dihydro-5H-dibenzo[b,e][1,4]diazepine-9-carboxamide]
remaining binding at 1 µM (ADCK3): 100%
remaining binding at 1 µM (CAMK4): 99%
remaining binding at 1 µM (CDK8): 81%
remaining binding at 1 µM (CLK4): 100%
remaining binding at 1 µM (DRAK2): 94%
remaining binding at 1 µM (EPHA2): 100%
remaining binding at 1 µM (ERN1): 74%
remaining binding at 1 µM (FER): 36%
remaining binding at 1 µM (FLT1): 100%
remaining binding at 1 µM (GRK3): 100%
remaining binding at 1 µM (GRK7): 99%
remaining binding at 1 µM (GSK3A): 65%
remaining binding at 1 µM (HUNK): 32%
remaining binding at 1 µM [1]: 83%
remaining binding at 1 µM (LOK): 49%
remaining binding at 1 µM (LRRK2(G2019S)): 100%
remaining binding at 1 µM (MAP3K2): 100%
remaining binding at 1 µM (MLK2): 97%
remaining binding at 1 µM (MST2): 14%
remaining binding at 1 µM (NEK1): 90%
remaining binding at 1 µM (NEK11): 100%
remaining binding at 1 µM (OSR1): 89%
remaining binding at 1 µM (PAK2): 100%
remaining binding at 1 µM (PFTK1): 90%
remaining binding at 1 µM (PIM2): 88%
remaining binding at 1 µM (PKN1): 88%
remaining binding at 1 µM (RET(V804M)): 91%
remaining binding at 1 µM (RIOK3): 100%
remaining binding at 1 µM (SRPK2): 100%
remaining binding at 1 µM (TAOK1): 100%
remaining binding at 1 µM (TAOK3): 95%
remaining binding at 1 µM (TLK2): 87%
remaining binding at 1 µM (TNNI3K): 89%
remaining binding at 1 µM (TRKC): 87%
remaining binding at 1 µM (TTK): 72%
remaining binding at 1 µM (VPS34): 84%
remaining binding at 1 µM (YES): 20%
